Measurements from PubChem BioAssay AID1963986 (Molecular Pharmacology Branch, DTP, NCI, 2024).
Values joined by “and” are separate entries in the source; they are usually repeats but may differ in a detail not shown here. Identical values can stand only once. Values belong to the molecule of their own block, whether it stands above or below them.

Tested on: 171881-019-R-J1-PDC tumor spheroid viability
Assay: Anticancer human tumor 171881-019-R-J1-PDC patient-derived invasive breast carcinoma cell line growth inhibition [PI3K]
Conditions: spheroids with HUVEC and MSC; for viability, T/C: stronger effect = lower value
Outline: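 Agents were dosed from a top concentration near clinical Cmax (otherwise 10 microM) in half-log decrements, alone or combined with PI3K inhibitors. The spheroids contain tumor cells plus endothelial (HUVEC) and MSC stroma; viability is measured.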

[1] = curve of first compound, second compound 0.00316 µM
[2] = curve of first compound, second compound 0.01 µM
[3] = curve of first compound, second compound 0.0316 µM
[4] = curve of first compound, second compound 0.1 µM
[5] = curve of first compound, second compound 0.316 µM
[6] = curve of first compound, second compound 1 µM
[7] = second compound 0.00316 µM, first compound 0.0316 µM
[8] = second compound 0.00316 µM, first compound 0.1 µM
[9] = second compound 0.00316 µM, first compound 0.316 µM
[10] = second compound 0.00316 µM, first compound 1 µM
[11] = second compound 0.00316 µM, first compound 3.16 µM
[12] = second compound 0.00316 µM, first compound 10 µM
[13] = second compound 0.01 µM, first compound 0.0316 µM
[14] = second compound 0.01 µM, first compound 0.1 µM
[15] = second compound 0.01 µM, first compound 0.316 µM
[16] = second compound 0.01 µM, first compound 1 µM
[17] = second compound 0.01 µM, first compound 3.16 µM
[18] = second compound 0.01 µM, first compound 10 µM
[19] = second compound 0.0316 µM, first compound 0.0316 µM
[20] = second compound 0.0316 µM, first compound 0.1 µM
[21] = second compound 0.0316 µM, first compound 0.316 µM
[22] = second compound 0.0316 µM, first compound 1 µM
[23] = second compound 0.0316 µM, first compound 3.16 µM
[24] = second compound 0.0316 µM, first compound 10 µM
[25] = second compound 0.1 µM, first compound 0.0316 µM
[26] = second compound 0.1 µM, first compound 0.1 µM
[27] = second compound 0.1 µM, first compound 0.316 µM
[28] = second compound 0.1 µM, first compound 1 µM
[29] = second compound 0.1 µM, first compound 3.16 µM
[30] = second compound 0.1 µM, first compound 10 µM
[31] = second compound 0.316 µM, first compound 0.0316 µM
[32] = second compound 0.316 µM, first compound 0.1 µM
[33] = second compound 0.316 µM, first compound 0.316 µM
[34] = second compound 0.316 µM, first compound 1 µM
[35] = second compound 0.316 µM, first compound 3.16 µM
[36] = second compound 0.316 µM, first compound 10 µM
[37] = second compound 1 µM, first compound 0.0316 µM
[38] = second compound 1 µM, first compound 0.1 µM
[39] = second compound 1 µM, first compound 0.316 µM
[40] = second compound 1 µM, first compound 1 µM
[41] = second compound 1 µM, first compound 3.16 µM
[42] = second compound 1 µM, first compound 10 µM
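Further: spheroids exposed to compound for 7 days before viability read.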
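Wherever viability, T/C is given: 100% = DMSO vehicle-treated spheroids.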

IC50 (curve of compound): 11.9 nM [middle of 4 runs]
Structure (SMILES): CC(C)n1nc(-c2ccc3oc(N)nc3c2)c2c(N)ncnc21
viability, T/C (compound 0.001 µM): 76.3% and 86.4% and 84.6% (2×) | viability, T/C (compound 0.00316 µM): 78.9% [middle of 4 runs] | viability, T/C (compound 0.01 µM): 53.9% [middle of 4 runs] | viability, T/C (compound 0.0316 µM): 24% [middle of 4 runs] | viability, T/C (compound 0.1 µM): 3.78% [middle of 4 runs]

IC50 [1]: > 10000 nM | IC50 [2]: > 10000 nM | IC50 [3]: 4210 nM | IC50 [4]: < 31.6 nM | IC50 [5]: < 31.6 nM | IC50 [6]: < 31.6 nM
Structure (SMILES): CC(Cn1ccc(-c2ccc(C#N)c(Cl)c2)n1)NC(=O)c1cc(C(C)O)[nH]n1 (configuration not stated) + CC(Nc1ccc2c(c1)OCCn1cc(N3C(=O)OCC3C(F)F)nc1-2)C(N)=O
viability, T/C [7]: 74.5% | viability, T/C [8]: 85% | viability, T/C [9]: 92% | viability, T/C [10]: 93.9% | viability, T/C [11]: 88.5% | viability, T/C [12]: 54.3% | viability, T/C [13]: 75.1% | viability, T/C [14]: 80.9% | viability, T/C [15]: 78.6% | viability, T/C [16]: 80.5% | viability, T/C [17]: 83.4% | viability, T/C [18]: 57.7% | viability, T/C [19]: 50.2% | viability, T/C [20]: 57.4% | viability, T/C [21]: 54.4% | viability, T/C [22]: 53.7% | viability, T/C [23]: 59.2% | viability, T/C [24]: 35.1% | viability, T/C [25]: 41.1% | viability, T/C [26]: 36.2% | viability, T/C [27]: 38.5% | viability, T/C [28]: 39.8% | viability, T/C [29]: 39% | viability, T/C [30]: 27.3% | viability, T/C [31]: 26.7% | viability, T/C [32]: 26.5% | viability, T/C [33]: 25.8% | viability, T/C [34]: 27% | viability, T/C [35]: 25.8% | viability, T/C [36]: 19.4% | viability, T/C [37]: 19.6% | viability, T/C [38]: 20.6% | viability, T/C [39]: 19.7% | viability, T/C [40]: 20.8% | viability, T/C [41]: 19.1% | viability, T/C [42]: 14.3%

IC50 [1]: 5310 nM | IC50 [2]: < 31.6 nM | IC50 [3]: < 31.6 nM | IC50 [4]: < 31.6 nM | IC50 [5]: < 31.6 nM | IC50 [6]: < 31.6 nM
Structure (SMILES): C=CC(=O)N1CCN(c2nc(=O)n(-c3c(C)ccnc3C(C)C)c3nc(-c4c(O)cccc4F)c(F)cc23)C(C)C1 (configuration not stated) + COc1c(OCCCN2CCOCC2)ccc2c3n(c(=NC(=O)c4cnc(N)nc4)nc12)CCN3
viability, T/C [7]: 63.5% | viability, T/C [8]: 70% | viability, T/C [9]: 50% | viability, T/C [10]: 66.9% | viability, T/C [11]: 60.3% | viability, T/C [12]: 36.9% | viability, T/C [13]: 45.4% | viability, T/C [14]: 49.9% | viability, T/C [15]: 49% | viability, T/C [16]: 51.3% | viability, T/C [17]: 43.8% | viability, T/C [18]: 28.4% | viability, T/C [19]: 24.2% | viability, T/C [20]: 25.5% | viability, T/C [21]: 24.3% | viability, T/C [22]: 26.2% | viability, T/C [23]: 25.6% | viability, T/C [24]: 13.3% | viability, T/C [25]: 7.99% | viability, T/C [26]: 8.18% | viability, T/C [27]: 9.55% | viability, T/C [28]: 9.16% | viability, T/C [29]: 8.78% | viability, T/C [30]: 4.72% | viability, T/C [31]: 1.86% | viability, T/C [32]: 1.72% | viability, T/C [33]: 2.68% | viability, T/C [34]: 2.25% | viability, T/C [35]: 2.28% | viability, T/C [36]: 2.01% | viability, T/C [37]: 0.96% | viability, T/C [38]: 0.93% | viability, T/C [39]: 1.05% | viability, T/C [40]: 1.41% | viability, T/C [41]: 1.76% | viability, T/C [42]: 3.63%

IC50 [1]: > 100 nM | IC50 [2]: < 0.316 nM | IC50 [3]: < 0.316 nM | IC50 [4]: < 0.316 nM | IC50 [5]: < 0.316 nM | IC50 [6]: < 0.316 nM
Structure (SMILES): Cn1ncnc1[C@H]1c2n[nH]c(=O)c3cc(F)cc(c23)N[C@@H]1c1ccc(F)cc1 + COc1c(OCCCN2CCOCC2)ccc2c3n(c(=NC(=O)c4cnc(N)nc4)nc12)CCN3
viability, T/C (second compound 0.00316 µM, first compound 0.000316 µM): 65.8% | viability, T/C (second compound 0.00316 µM, first compound 0.001 µM): 69.5% | viability, T/C (second compound 0.00316 µM, first compound 0.00316 µM): 62.6% | viability, T/C (second compound 0.00316 µM, first compound 0.01 µM): 75% | viability, T/C [7]: 59.7% | viability, T/C [8]: 53.5% | viability, T/C (second compound 0.01 µM, first compound 0.000316 µM): 43.3% | viability, T/C (second compound 0.01 µM, first compound 0.001 µM): 47.2% | viability, T/C (second compound 0.01 µM, first compound 0.00316 µM): 43.6% | viability, T/C (second compound 0.01 µM, first compound 0.01 µM): 49.6% | viability, T/C [13]: 41.7% | viability, T/C [14]: 42% | viability, T/C (second compound 0.0316 µM, first compound 0.000316 µM): 24.2% | viability, T/C (second compound 0.0316 µM, first compound 0.001 µM): 24.2% | viability, T/C (second compound 0.0316 µM, first compound 0.00316 µM): 21.8% | viability, T/C (second compound 0.0316 µM, first compound 0.01 µM): 24.2% | viability, T/C [19]: 23.6% | viability, T/C [20]: 20.2% | viability, T/C (second compound 0.1 µM, first compound 0.000316 µM): 7.63% | viability, T/C (second compound 0.1 µM, first compound 0.001 µM): 7.42% | viability, T/C (second compound 0.1 µM, first compound 0.00316 µM): 8.65% | viability, T/C (second compound 0.1 µM, first compound 0.01 µM): 7.87% | viability, T/C [25]: 7.14% | viability, T/C [26]: 6.55% | viability, T/C (second compound 0.316 µM, first compound 0.000316 µM): 2.06% | viability, T/C (second compound 0.316 µM, first compound 0.001 µM): 1.56% | viability, T/C (second compound 0.316 µM, first compound 0.00316 µM): 1.67% | viability, T/C (second compound 0.316 µM, first compound 0.01 µM): 1.78% | viability, T/C [31]: 2.25% | viability, T/C [32]: 1.69% | viability, T/C (second compound 1 µM, first compound 0.000316 µM): 1.89% | viability, T/C (second compound 1 µM, first compound 0.001 µM): 1.19% | viability, T/C (second compound 1 µM, first compound 0.00316 µM): 1.15% | viability, T/C (second compound 1 µM, first compound 0.01 µM): 1.21% | viability, T/C [37]: 1.01% | viability, T/C [38]: 0.97%
